This is an account of results in patent US11964986B1, “9-oxo-9,10-dihydro-6H-pyrano[3,2-b:4,5-b′]dipyridine-8-carboxylic acid derivatives” (REJUVERON TELOMERE THERAPEUTICS AG, priority 2023, dated 2024).

In one data set the test system is HBsAg. Particulars: Table 4; effective concentration that achieved 50% inhibitory effect; from WO2019177937; cited from earlier work.
A short description of a further data set: logD(pH 7.4). In kind it is physicochemical.
A short description of data set [1]: kinetic solubility assay at pH 6.5. Particulars: for solubility kinetic: pH 6.5, kinetic from dmso stock. Type of data set: physicochemical.
The next data set addresses PAPD7 (Homo sapiens, UniProt Q5XG87). Briefly: HBsAg ELISA in HepG2/2.2.15 PAPD5 KO cells (PAPD7 inhibitory activity). Type of data set: cell-based. Particulars: Table 3, HBsAg secretion, 4 days, read-out: pIC50 PAPD7 (PAPD5 KO cells) (converted).
The subject of data set [2] is HBsAg secretion in HepG2/2.2.15 WT cells (combined effect of PAPD5 and PAPD7 inhibition).
Protocol: (§1) The hepatocarcinoma HepG2/2.2.15 cell line (hereafter referred to as wild type) was obtained from Millipore (SCC249) and HepG2/2.2.15 PAPD5 knock-out (PAPD5 KO) and PAPD7 knock-out (PAPD7 KO) cells were generated using CRISPR/Cas9 technology.
An ELISA was performed using a hepatocarcinoma HepG2/2.2.15 wild type (WT) cell line to assess the potential of the compounds of the present invention as treatments of chronic HBV infection.
(§2) Cell seeding and addition of the compounds: On day −1, HepG2/2.2.15 cell lines were seeded in U-bottom 96-well plates (Fisher Scientific, 10777241) at a density of 1,5×10^4 cells/well in a final volume of 200 μL complemented DMEM/F12. On day 0, medium was aspirated and cells were washed once with PBS (300 μL/well). Then, PBS was replaced with complemented DMEM/F12 (200 μL/well). Using a Tecan-TE300e chemical dispenser, the compounds were added to the cells with 11 half-log incremental dilutions in dimethyl sulfoxide (DMSO) (Sigma-Aldrich, 276855) within the highest concentration equal to 25 μM (concentration range 1). DMSO was used as no-drug control, and the final DMSO concentration in all wells was 0.5%. […] On day 4, the 96-well plate was centrifuged for 5 min at 300 g to spin down cell debris. 100 μL/well of cell culture supernatant were collected and diluted 1:2 with 100 μL of complemented DMEM/F12 to perform the ELISA.
(§3) ELISA: Before starting, the “Hepatitis B surface antigen ELISA kit” (Abnova, KA0286) was equilibrated at room temperature (RT) for 1 h. […] The anti-HB plate was sealed using adhesive foil provided with the kit and incubated for 1 h at 37° C. […] After the last wash, the residual liquid was removed by turning the plate upside down and tapping on adsorbent paper. TMB substrate solutions A and B were mixed in equal volumes and 100 μL/well of this mixture were added to each well. The plate was covered with the supplied tray and incubated at RT for 20 min. During this time, a color develops in proportion to the amount of HBsAg bound to anti-HBs. After incubation, the reaction was stopped by adding 100 μL/well of 2N aqueous H2SO4 solution. The optical density of the developed color was read at 450 nm using a Cytation 5 instrument with reference wavelength at 620 nm.
(§4) CCK8 viability assay: Viability of HepG2/2.2.15 WT, PAPD5 KO and PAPD7 KO cell lines treated with the compounds was determined using the Cell Counting Kit-8 (CCK8, Sigma-Aldrich, 96992) following the manufacturer's instructions. […] During this time, WST-8 is reduced by dehydrogenases in cells to give a yellow-colored product (formazan), which is soluble in the tissue culture medium. The amount of the formazan dye generated by the activity of dehydrogenases in cells is directly proportional to the number of living cells. After 1 h incubation, the optical density of the developed color was read at 450 nm using a Cytation 5 instrument with the reference wavelength at 620 nm. CCK8 optical density values were used for normalization of the ELISA results.
To determine the IC50 values, the amount of HBsAg (optical density values of the ELISA) was corrected by the number of living cells (CCK8 optical density) per each well. Normalized HBsAg values were used to generate a dose-response curve with a non-linear regression model and applying the Levenberg-Marquardt algorithm. The percentage of inhibition was calculated relative to the untreated condition (DMSO CTRLs).
Data set [3] deals with T1, PAPD5 (Homo sapiens, UniProt Q8NDF8). Nature of the data set: cell-based. More on the design: endogenous in cells; host or cells: HepG2/2.2.15 PAPD7 knock-out cells (CRISPR/Cas9). Particulars: for Fold sel. for PAPD5 over PAPD7: PAPD7 KO cells vs PAPD5 KO cells.
T1 sequence (Q8NDF8 whole entry): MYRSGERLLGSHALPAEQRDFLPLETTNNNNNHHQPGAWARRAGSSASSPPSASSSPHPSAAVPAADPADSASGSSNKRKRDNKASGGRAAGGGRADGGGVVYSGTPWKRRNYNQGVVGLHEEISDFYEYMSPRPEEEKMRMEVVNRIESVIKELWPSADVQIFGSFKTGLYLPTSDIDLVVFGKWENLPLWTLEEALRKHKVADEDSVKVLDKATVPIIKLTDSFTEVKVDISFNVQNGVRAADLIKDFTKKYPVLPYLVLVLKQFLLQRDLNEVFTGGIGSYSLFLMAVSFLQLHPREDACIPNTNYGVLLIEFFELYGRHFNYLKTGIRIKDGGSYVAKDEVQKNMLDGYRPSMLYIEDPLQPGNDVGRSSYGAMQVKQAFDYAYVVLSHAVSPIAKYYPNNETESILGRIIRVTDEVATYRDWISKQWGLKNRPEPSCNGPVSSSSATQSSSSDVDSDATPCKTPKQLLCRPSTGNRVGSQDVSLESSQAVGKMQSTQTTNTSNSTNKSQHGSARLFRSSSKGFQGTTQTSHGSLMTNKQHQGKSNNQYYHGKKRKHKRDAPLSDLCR
Protocol: as §1
To this end, all compounds of the present invention were also tested in an ELISA on HepG2/2.2.15 PAPD5 and PAPD7 KO cell lines to determine the compounds' potency to inhibit PAPD5 and their selectivity for PAPD5 over PAPD7.
as §2, §3, §4
To determine the IC50 values, the amount of HBsAg (optical density values of the ELISA) was corrected by the number of living cells (CCK8 optical density) per each well. Normalized HBsAg values were used to generate a dose-response curve with a non-linear regression model and applying the Levenberg-Marquardt algorithm.
Data set [4] concerns the target T1, PAPD5. Nature of the data set: Degree of PAPD5 target engagement calculated for test concentrations in assays using iPSCs. More on the design: endogenous in cells.
Description: (§5) In the ELISA 10% plasma protein (p=0.1) is used, whereas the assays using iPSCs are run in a plasma protein-free medium.
Data set [5] concerns TERC in patient-derived iPSCs. Briefly: TERC stability by RLM-RACE in patient-derived iPSCs. Particulars: 1-week treatment, FIG. 2A.
Protocol: For coating, one aliquot of Corning Matrigel hESC-qualified matrix (approximately 300 μL) was thawed on ice and diluted in 25 mL ice-cold DMEM/F-12. […] The coating solution was kept on ice and Matrigel was handled using ice-cold pipette tips. 6 mL of the coating solution were added to one 10 cm cell culture dish and spread by gentle rocking. The coated dishes were then incubated at RT for at least 30 min to let the matrix solidify. The coating solution was aspirated from the dishes and cells were seeded immediately. […] Cells were incubated shortly at 37° C. and the colonies were briefly disaggregated by gentle pipetting or by agitation. The single cell suspension was transferred in a canonical tube with cold 1× PBS and centrifuged at 300 g for 5 min to remove Accutase. Cell pellet was resuspended in an appropriate volume of complemented Essential E8 medium and seeded in a Matrigel-coated dish according to the split ratio.
The compounds were dissolved in DMSO at a 10 mM stock concentration and diluted in complemented Essential E8 medium at the reported concentrations (Table 6). […]
Samples were spun at 12000 g for 10 min at 4° C. […] The RNA concentration was measured using a Qubit HS RNA quantification kit (Thermo Fisher, Q32852). […]
DNA was stored overnight at −20° C. before loading on agarose gel. PCR products were quantified using a Qubit dsDNA BR quantification kit (Thermo Fisher, Q32850). […]
Data set [6] concerns telomere length in patient-derived iPSCs. Nature of the data set: Telomere restriction fragment (TRF) analysis in patient-derived iPSCs. Particulars: for telomere elongation: 4-week treatment, increasing concentrations, FIG. 2B.
Protocol: Healthy donor- and patient-derived induced Pluripotent Stem Cells (iPSCs), described in Moon et al. 2015, were cultured in feeder-free condition using Matrigel hESC-qualified matrix (Corning, 354277) coated cell culture dishes. For coating, one aliquot of Corning Matrigel hESC-qualified matrix (approximately 300 μL) was thawed on ice and diluted in 25 mL ice-cold DMEM/F-12. […] The coating solution was kept on ice and Matrigel was handled using ice-cold pipette tips. 6 mL of the coating solution were added to one 10 cm cell culture dish and spread by gentle rocking. The coated dishes were then incubated at RT for at least 30 min to let the matrix solidify. The coating solution was aspirated from the dishes and cells were seeded immediately. […] Cells were incubated shortly at 37° C. and the colonies were briefly disaggregated by gentle pipetting or by agitation. The single cell suspension was transferred in a canonical tube with cold 1× PBS and centrifuged at 300 g for 5 min to remove Accutase. Cell pellet was resuspended in an appropriate volume of complemented Essential E8 medium and seeded in a Matrigel-coated dish according to the split ratio.
The scope of this assay is to isolate telomeric DNA from healthy donor- and patient-derived iPSCs and determine the average length of isolated telomeres.
The compounds were dissolved in DMSO at a 10 mM stock concentration and diluted in complemented Essential E8 medium at the reported concentrations (Table 6). For untreated samples (0 nM) DMSO only was added to the medium. Culture medium with the diluted compound was replaced daily, and cells were subcultured as described above.
To carry out the cellular assays, cells were cultured in the presence of PAPD5 inhibitors and collected at different time points. […] (2) At week 4 (Day 28), cells were harvested for DNA isolation to perform Telomere Restriction Fragment (TRF) analysis. […]
Genomic DNA extraction: At day 28 of exposure, 2×10^6 iPSCs per condition were pelleted and resuspended in 200 μl PBS. […] DNA quantification was performed using a Qubit dsDNA BR quantification kit. […]
Data set [7] in a line: Plasma protein binding (fraction unbound).
Description: as §5
Where [8] appears, read: Table 3, HepG2/2.2.15 PAPD7 KO cells, HBsAg secretion, 4 days, read-out: pIC50 PAPD5 (PAPD7 KO cells) (converted).
The mark [9] stands for this setting: Table 5, PAPD7 KO cells, read-out: PIC50 PAPD5 (PAPD7 KO cells) (converted).
The mark [10] stands for this setting: PAPD5 IC50 by ELISA, HepG2/2.2.15 PAPD7 KO cell line, 10% plasma protein, read-out: IC50ELISA.
The mark [11] stands for this setting: unbound IC50 in protein-free medium, IC50ELISA*fu,ELISA, read-out: IC50u.

In brackets after ≈: the same amount, converted by molar mass. Read-outs that look alike come from different tables or passages of the source.

Sequence of PAPD7 (Q5XG87 whole entry): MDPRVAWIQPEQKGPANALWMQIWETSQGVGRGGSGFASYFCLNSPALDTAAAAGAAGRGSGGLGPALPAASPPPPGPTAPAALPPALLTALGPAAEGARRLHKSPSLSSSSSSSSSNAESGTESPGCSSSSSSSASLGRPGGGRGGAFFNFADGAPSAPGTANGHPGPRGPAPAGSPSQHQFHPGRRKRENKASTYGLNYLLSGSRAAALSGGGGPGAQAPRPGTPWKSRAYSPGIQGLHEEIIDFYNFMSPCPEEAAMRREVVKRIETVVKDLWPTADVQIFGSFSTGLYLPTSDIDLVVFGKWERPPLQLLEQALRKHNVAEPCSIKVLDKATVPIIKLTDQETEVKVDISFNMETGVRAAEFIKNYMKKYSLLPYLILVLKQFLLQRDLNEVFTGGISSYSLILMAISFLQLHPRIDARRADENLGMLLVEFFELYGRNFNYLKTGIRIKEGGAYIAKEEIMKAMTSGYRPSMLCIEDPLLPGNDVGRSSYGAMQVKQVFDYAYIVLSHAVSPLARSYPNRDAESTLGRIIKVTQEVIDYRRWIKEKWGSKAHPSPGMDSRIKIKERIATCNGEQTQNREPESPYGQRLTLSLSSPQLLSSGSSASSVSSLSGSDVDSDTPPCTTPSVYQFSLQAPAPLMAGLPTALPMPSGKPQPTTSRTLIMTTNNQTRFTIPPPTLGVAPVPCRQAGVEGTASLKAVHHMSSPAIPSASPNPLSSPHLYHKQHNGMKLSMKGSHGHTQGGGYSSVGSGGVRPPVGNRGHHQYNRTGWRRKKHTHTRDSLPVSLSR

Consider “(RS)-6-Isopropyl-2-methoxy-3-(3-methoxypropoxy)-9-oxo-9,10-dihydro-6H-pyrano[3,2-b:4,5-b′]dipyridine-8-carboxylic acid [Example 501]”, for which the EC50 with HBsAg is 94 nM.

The compound `COCCCOc1cc2c(nc1OC)-c1[nH]c(=O)c(C(=O)O)cc1C(C(C)(C)C)C2` (racemic) [Example 701, (RS)-5-(tert-Butyl)-9-methoxy-8-(3-methoxypropoxy)-2-oxo-1,2,5,6-tetrahydro-1,10-phenanthroline-3-carboxylic acid, reference compound] showed a logD in the data set “logD(pH 7.4)” of 1.4. Besides, in [1], the solubility (kinetic) is 186 µM (≈ 77.3 µg/mL).

As for `COCCCOc1cc2c(nc1OC)-c1[nH]c(=O)c(C(=O)O)cc1C(C(C)(C)C)O2` (racemic) [Example 505, (RS)-6-(tert-Butyl)-2-methoxy-3-(3-methoxypropoxy)-9-oxo-9,10-dihydro-6H-pyrano[3,2-b:4,5-b′]dipyridine-8-carboxylic acid], the IC50 on PAPD7 was 10 nM; in [2], 2 nM; on PAPD5 [3] (setting [8]), 2 nM; on PAPD5 [3] (setting [9]), 2 nM. Moreover, in “logD(pH 7.4)”, the pH-dependent lipophilicity (logD) came out at 1.1. Also, the “fold more soluble than example 701” value in data set [1] (kinetic solubility assay at pH 6.5) was found to be 2.6 fold. The solubility (kinetic) in data set [1] came to 484 µM (≈ 203 µg/mL). In addition, the “Fold sel. for PAPD5 over PAPD7” value at PAPD5 [3] (Table 3) worked out at 4.9 Fold.

Consider `COCCCOc1cc2c(cc1OC)-c1cc(=O)c(C(=O)O)cn1[C@H](C(C)C)C2` [RG7834], for which the “fu, plasma” value came out at 0.328. Under “plasma”, the “fu, ELISA” value is recorded as 0.83. Also, the “% Target engagement (X)” value on PAPD5 [4] (test conc. 0.3 nM) is reported as 16%. The “% Target engagement (X)” value on PAPD5 [4] (test conc. 1 nM) is 38%. At PAPD5 [4] (test conc. 3 nM), the “% Target engagement (X)” value is reported as 65%. Also, the “% Target engagement (X)” value at PAPD5 [4] (test conc. 10 nM) is given as 86%. Besides, at PAPD5 [4] (test conc. 30 nM), the “% Target engagement (X)” value is given as 95%. The “levels of the mature and stable form of TERC” value in [5] is “restores the steady-state and physiological levels of the mature and stable form of TERC”. The telomere elongation result in data set [6] was “dose-dependently effects telomere elongation”. For the same compound, the IC50 at PAPD5 [3] (setting [10]) turned out to be 1.64 nM. In addition, the IC50 on PAPD5 [3] (setting [11]) came out at 1.35 nM.

For `COCCCOc1cc2c(nc1C1CC1)-c1c(cc(C(=O)O)c(=O)n1C1CC1)C(C(C)(C)C)O2` (racemic) [Example 508, (RS)-6-(tert-butyl)-2,10-dicyclopropyl-3-(3-methoxypropoxy)-9-oxo-9,10-dihydro-6H-pyrano[3,2-b:4,5-b′]dipyridine-8-carboxylic acid], the figures for the IC50 (at PAPD7; in [2]; at PAPD5 [3] (setting [8])) were 0.1 nM, 0.0631 nM and 0.1 nM, respectively. Further, the “Fold sel. for PAPD5 over PAPD7” value on PAPD5 [3] (Table 3) was found to be 1.0 Fold.

Consider `COCCCOc1cc2c(nc1OC)-c1[nH]c(=O)c(C(=O)O)cc1C(C(C)C)O2` (racemic) [Example 501, (RS)-6-Isopropyl-2-methoxy-3-(3-methoxypropoxy)-9-oxo-9,10-dihydro-6H-pyrano[3,2-b:4,5-b′]dipyridine-8-carboxylic acid], for which the figures for the IC50 (at PAPD7; in data set [2]; on PAPD5 [3] (setting [8])) were 39.8 nM, 7.94 nM and 6.31 nM, respectively. The “Fold sel. for PAPD5 over PAPD7” value at PAPD5 [3] (Table 3) is 7.1 Fold.

As to `COCCCOc1cc2c(nc1C1CC1)-c1[nH]c(=O)c(C(=O)O)cc1C(C(C)(C)C)O2` (racemic) [Example 507, (RS)-6-(tert-Butyl)-2-cyclopropyl-3-(3-methoxypropoxy)-9-oxo-9,10-dihydro-6H-pyrano[3,2-b:4,5-b′]dipyridine-8-carboxylic acid], the IC50 on PAPD7 is 0.631 nM; in [2] it was 0.794 nM; on PAPD5 [3] (setting [8]), 0.398 nM. Also, the “Fold sel. for PAPD5 over PAPD7” value on PAPD5 [3] (Table 3) is 1.8 Fold.

Consider `COCCCOc1cc2c(nc1OC)-c1c(cc(C(=O)O)c(=O)n1C1CC1)C(C(C)(C)C)O2` (racemic) [Example 506, (RS)-6-(tert-Butyl)-10-cyclopropyl-2-methoxy-3-(3-methoxypropoxy)-9-oxo-9,10-dihydro-6H-pyrano[3,2-b:4,5-b′]dipyridine-8-carboxylic acid], for which the IC50 was 0.501 nM on PAPD7; 0.2 nM in data set [2]; 0.0847 nM at PAPD5 [3] (setting [10]); 0.0794 nM at PAPD5 [3] (setting [9]); 0.07 nM on PAPD5 [3] (setting [11]). Besides, the “% Target engagement (X)” value at PAPD5 [4] (test conc. 0.1 nM) was 54%; at PAPD5 [4] (test conc. 0.5 nM), 86%; at PAPD5 [4] (test conc. 2.5 nM), 97%. In addition, the fraction unbound in data set [7] is 0.347; in data set [7] (fu, ELISA, fraction unbound in ELISA, calculated with p = 0.1), 0.84. Further, the “levels of the mature and stable form of TERC” value in data set [5] is “restores the steady-state and physiological levels of the mature and stable form of TERC”. Also, in data set [6] (0.5 nM, 4 weeks of treatment), the “telomere length after elongation” value is given as “up to 8 kb”. In addition, the telomere elongation entry in data set [6] is listed as “dose-dependently effects telomere elongation”. Further, the “Fold sel. for PAPD5 over PAPD7” value at PAPD5 [3] (Table 3) was found to be 6.1 Fold.
